One may read the pIC50 as the IC50 on a negative log10 scale, so that one unit is a factor of ten. The low end stands for a high IC50, the high end for a low IC50.

Drawing on patent publication US20260028326A1, “COMPOUND BASED ON ISOINDOLINE-SUBSTITUTED GLUTARIMIDE BACKBONE AND USE THEREOF” (GLUETACS THERAPEUTICS (SHANGHAI) CO., LTD., priority 2022, published 2026), this text covers IC50 for 25 compounds.

pIC50: −log10 of the molar value.

The target in this assay is human Cereblon WT GST-tagged protein (Homo sapiens (Human), UniProt Q96SW2). Kind of assay: CRBN-binding affinity, HTRF (CEREBLON BINDING kit). The method, then: The CEREBLON BINDING kits (specification: 10,000 tests; product number: Catalog #64BDCRBNPEH; CISBIO company) was used to determine the CRBN binding ability of the compounds to be tested through a HTRF method (homogeneous time-resolved fluorescence). The specific methods are as follows: • 1. […] Then, 2.5 μL of human Cereblon WT GST-tagged protein solution was added to each well. Finally, 5 μL of the thoroughly mixed Thalidomide-Re reagent and GST Eu antibody working solution were added to each of the aforementioned wells. […] The blank control wells were sequentially added with 2.5 μL of diluent #9 (1×) solution, 2.5 μL of PROTAC binding buffer, and 5 μL of thoroughly mixed Thalidomide-Re reagent and GST Eu antibody working solution. • 4.
Chain of human Cereblon WT GST-tagged protein (Q96SW2 whole entry): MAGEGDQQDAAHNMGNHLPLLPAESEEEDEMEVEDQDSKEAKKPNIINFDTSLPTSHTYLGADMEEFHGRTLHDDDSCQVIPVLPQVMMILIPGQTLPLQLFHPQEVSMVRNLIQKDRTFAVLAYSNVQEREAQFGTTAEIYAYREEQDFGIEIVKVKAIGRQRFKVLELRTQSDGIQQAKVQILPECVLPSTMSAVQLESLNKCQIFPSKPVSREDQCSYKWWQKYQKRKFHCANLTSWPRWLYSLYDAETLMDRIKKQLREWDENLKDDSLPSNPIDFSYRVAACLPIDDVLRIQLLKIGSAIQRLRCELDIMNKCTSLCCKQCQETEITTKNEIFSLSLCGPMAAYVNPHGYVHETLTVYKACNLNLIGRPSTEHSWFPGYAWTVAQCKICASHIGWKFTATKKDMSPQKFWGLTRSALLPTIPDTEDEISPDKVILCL
The corresponding CRBN binding inhibition rate was calculated using the following method: […]
In general terms: TR-FRET usually uses a lanthanide donor and a delayed reading to cut background.
The compound `O=C1CCC(N2Cc3cc(CC4CCN(Cc5ccccc5-c5ccc(Cl)cc5)CC4)ccc3C2=O)C(=O)N1` (stereo not shown) [GT-03361, 3-(5-((1-((4′-chloro-[1,1′-biphenyl]-2-yl)methyl)piperidin-4-yl)methyl)-1-oxoisoindolin-2-yl)piperidine-2,6-dione] gave a pIC50 of 5.80. With `CC1(C)CCC(CN2C3CCC2CN(Cc2ccc4c(c2)CN(C2CCC(=O)NC2=O)C4=O)C3)=C(c2ccc(Cl)cc2)C1` (stereo not shown) [GT-03996, 3-(5-((8-((4′-chloro-5,5-dimethyl-3,4,5,6-tetrahydro-[1,1′-biphenyl]-2-yl)methyl)-3,8-diazabicyclo[3.2.1]octan-3-yl)methyl)-1-oxoisoindolin-2-yl)piperidine-2,6-dione] the figure was 5.84; with `CC1(C)CCC(C(=O)N2CC3CCC(C2)N3Cc2ccc3c(c2)CN(C2CCC(=O)NC2=O)C3=O)=C(c2ccc(Cl)cc2)C1` (stereo not shown) [GT-05522, 3-(5-((3-(4′-chloro-5,5-dimethyl-3,4,5,6-tetrahydro-[1,1′-biphenyl]-2-carbonyl)-3,8-diazabicyclo[3.2.1]octan-8-yl)methyl)-1-oxoisoindolin-2-yl)piperidine-2,6-dione], 6.32.

On to `O=C1CCC(N2Cc3cc(CN4CCC(Nc5ccccc5-c5ccc(Cl)cc5)CC4)ccc3C2=O)C(=O)N1` (stereo not shown) [GT-03991, 3-(5-((4-((4′-chloro-[1,1′-biphenyl]-2-yl)amino)piperidin-1-yl)methyl)-1-oxoisoindolin-2-yl)piperidine-2,6-dione], for which the pIC50 was 6.33. The compound `O=C1CCC(N2Cc3cc(C(O)C4(O)CN(Cc5ccccc5-c5ccc(Cl)cc5)C4)ccc3C2=O)C(=O)N1` (stereo not shown) [GT-03880, 3-(5-((1-((4′-chloro-[1,1′-biphenyl]-2-yl)methyl)-3-hydroxyazetidin-3-yl)(hydroxy)methyl)-1-oxoisoindolin-2-yl)piperidine-2,6-dione] gave a pIC50 of 6.64. `O=C1CCC(N2Cc3cc(CN4CC5CC4CN5Cc4ccccc4-c4ccc(Cl)cc4)ccc3C2=O)C(=O)N1` (stereo not shown) [GT-05707, 3-(5-((5-((4′-chloro-[1,1′-biphenyl]-2-yl)methyl)-2,5-diazabicyclo[2.2.1]heptan-2-yl)methyl)-1-oxoisoindolin-2-yl)piperidine-2,6-dione] showed a pIC50 of 6.15. `CC1(C)CCC(CN2CC(Cc3ccc4c(c3)CN(C3CCC(=O)NC3=O)C4=O)C2)=C(c2ccc(Cl)cc2)C1` (stereo not shown) [GT-05428, 3-(5-((1-((4′-chloro-5,5-dimethyl-3,4,5,6-tetrahydro-[1,1′-biphenyl]-2-yl)methyl)azetidin-3-yl)methyl)-1-oxoisoindolin-2-yl)piperidine-2,6-dione] showed a pIC50 of 5.97. In turn, `O=C1CCC(N2Cc3cc(CN4CCN(C(=O)c5cnc(-c6ccccc6)cn5)CC4)ccc3C2=O)C(=O)N1` (stereo not shown) [GT-05635, 3-(1-oxo-5-((4-(5-phenylpyrazine-2-carbonyl)piperazin-1-yl)methyl)isoindolin-2-yl)piperidine-2,6-dione] gave a pIC50 of 6.00.

Consider `O=C1CCC(N2Cc3cc(C(=O)N4C5CC4CN(Cc4ccccc4-c4ccc(Cl)cc4)C5)ccc3C2=O)C(=O)N1` (stereo not shown) [GT-05643, 3-(5-(3-((4′-chloro-[1,1′-biphenyl]-2-yl)methyl)-3,6-diazabicyclo[3.1.1]heptane-6-carbonyl)-1-oxoisoindolin-2-yl)piperidine-2,6-dione], for which the pIC50 is 6.23. `CC1(C)CCC(CN2CC3CN(Cc4ccc5c(c4)CN(C4CCC(=O)NC4=O)C5=O)CC3C2)=C(c2ccc(Cl)cc2)C1` (stereo not shown) [GT-05653, 3-(5-((5-((4′-chloro-5,5-dimethyl-3,4,5,6-tetrahydro-[1,1′-biphenyl]-2-yl)methyl)hexahydropyrrolo[3,4-c]pyrrol-2(1H)-yl)methyl)-1-oxoisoindolin-2-yl)piperidine-2,6-dione] gave a pIC50 of 5.97. With `CC1(C)CCC(C(=O)N2CC3CCC(C2)N3c2ccc3c(c2)CN(C2CCC(=O)NC2=O)C3=O)=C(c2ccc(F)cc2)C1` (stereo not shown) [GT-05492, 3-(5-(3-(4′-fluoro-5,5-dimethyl-3,4,5,6-tetrahydro-[1,1′-biphenyl]-2-carbonyl)-3,8-diazabicyclo[3.2.1]octan-8-yl)-1-oxoisoindolin-2-yl)piperidine-2,6-dione], the pIC50 was 6.08. For `CC1(C)CCC(CN2CC3CCC2CN3c2ccc3c(c2)C(=O)N(C2CCC(=O)NC2=O)C3=O)=C(c2ccc(Cl)cc2)C1` (stereo not shown) [GT-05379, 5-(5-((4′-chloro-5,5-dimethyl-3,4,5,6-tetrahydro-[1,1′-biphenyl]-2-yl)methyl)-2,5-diazabicyclo[2.2.2]octan-2-yl)-2-(2,6-dioxopiperidin-3-yl)isoindoline-1,3-dione], the pIC50 was 6.96. For `O=C1CCC(N2Cc3cc(CN4C5CC4CN(C(=O)c4ccccc4-c4ccc(Cl)cc4)C5)c(F)cc3C2=O)C(=O)N1` (stereo not shown) [GT-05667, 3-(5-((3-(4′-chloro-[1,1′-biphenyl]-2-carbonyl)-3,6-diazabicyclo[3.1.1]heptan-6-yl)methyl)-6-fluoro-1-oxoisoindolin-2-yl)piperidine-2,6-dione], the pIC50 was 6.12.

In turn, `CC1(C)CCC(C(=O)N2CCN(Cc3ccc4c(c3)CN(C3CCC(=O)NC3=O)C4=O)CC2)=C(c2ccc(Cl)cc2)C1` (stereo not shown) [GT-04224, 3-(5-((4-(4′-chloro-5,5-dimethyl-3,4,5,6-tetrahydro-[1,1′-biphenyl]-2-carbonyl)piperazin-1-yl)methyl)-1-oxoisoindolin-2-yl)piperidine-2,6-dione] gave a pIC50 of 6.37. For `O=C1CCC(N2C(=O)c3ccc(CN4CCN(Cc5ccncc5-c5ccc(Cl)cc5)CC4)cc3C2=O)C(=O)N1` (stereo not shown) [GT-05731, 5-((4-((3-(4-chlorophenyl)pyridin-4-yl)methyl)piperazin-1-yl)methyl)-2-(2,6-dioxopiperidin-3-yl)isoindoline-1,3-dione] the value was 5.78; for `CC1(C)CCC(CN2CCN(Cc3ccc4c(c3)C(=O)N(C3CCC(=O)NC3=O)C4)CC2)=C(c2ccc(F)cc2)C1` (stereo not shown) [GT-05394, 3-(6-((4-((4′-fluoro-5,5-dimethyl-3,4,5,6-tetrahydro-[1,1′-biphenyl]-2-yl)methyl)piperazin-1-yl)methyl)-1-oxoisoindolin-2-yl)piperidine-2,6-dione], 6.31; for `O=C1CCC(N2Cc3ccc(CN4CCN(C(=O)C5=C(c6ccc(F)cc6)CCCC5)CC4)cc3C2=O)C(=O)N1` (stereo not shown) [GT-05470, 3-(6-((4-(4′-fluoro-3,4,5,6-tetrahydro-[1,1′-biphenyl]-2-carbonyl)piperazin-1-yl)methyl)-1-oxoisoindolin-2-yl)piperidine-2,6-dione], 6.01. `O=C1CCC(N2Cc3ccc(CN4C5CC4CN(C(=O)C4=C(c6ccc(F)cc6)CCCC4)C5)cc3C2=O)C(=O)N1` (stereo not shown) [GT-05479, 3-(6-((3-(4′-fluoro-3,4,5,6-tetrahydro-[1,1′-biphenyl]-2-carbonyl)-3,6-diazabicyclo[3.1.1]heptan-6-yl)methyl)-1-oxoisoindolin-2-yl)piperidine-2,6-dione] showed a pIC50 of 6.14. `O=C1CCC(N2Cc3cc(CN4CC5CN(C(=O)c6ccccc6-c6ccc(Cl)cc6)CC5C4)ccc3C2=O)C(=O)N1` (stereo not shown) [GT-05645, 3-(5-((5-(4′-chloro-[1,1′-biphenyl]-2-carbonyl)hexahydropyrrolo[3,4-c]pyrrol-2(1H)-yl)methyl)-1-oxoisoindolin-2-yl)piperidine-2,6-dione] had a pIC50 of 6.15. Regarding `CC1(C)CCC(C(=O)N2CCN(Cc3ccc(-c4ccc5c(c4)CN(C4CCC(=O)NC4=O)C5=O)cc3)CC2)=C(c2ccc(Cl)cc2)C1` (stereo not shown) [GT-05359, 3-(5-(4-((4-(4′-chloro-5,5-dimethyl-3,4,5,6-tetrahydro-[1,1′-biphenyl]-2-carbonyl)piperazin-1-yl)methyl)phenyl)-1-oxoisoindolin-2-yl)piperidine-2,6-dione], the pIC50 is 6.01.

In the case of `O=C1CCC(N2Cc3c(CN4C5CC4CN(C(=O)C4=C(c6ccc(F)cc6)CCCC4)C5)cccc3C2=O)C(=O)N1` (stereo not shown) [GT-05478, 3-(4-((3-(4′-fluoro-3,4,5,6-tetrahydro-[1,1′-biphenyl]-2-carbonyl)-3,6-diazabicyclo[3.1.1]heptan-6-yl)methyl)-1-oxoisoindolin-2-yl)piperidine-2,6-dione], the pIC50 was 5.95. Turning to `CC1(C)CCC(C(=O)N2CC3CN(C(=O)c4ccc5c(c4)CN(C4CCC(=O)NC4=O)C5=O)CC3C2)=C(c2ccc(Cl)cc2)C1` (stereo not shown) [GT-05659, 3-(5-(5-(4′-chloro-5,5-dimethyl-3,4,5,6-tetrahydro-[1,1′-biphenyl]-2-carbonyl)octahydropyrrolo[3,4-c]pyrrole-2-carbonyl)-1-oxoisoindolin-2-yl)piperidine-2,6-dione], the pIC50 is 6.18. On to `CC1(C)CCC(CN2CCN(C(=O)c3ccc4c(c3)C(=O)N(C3CCC(=O)NC3=O)C4=O)CC2)=C(c2ccc(Cl)cc2)C1` (stereo not shown) [GT-05366, 5-(4-((4′-chloro-5,5-dimethyl-3,4,5,6-tetrahydro-[1,1′-biphenyl]-2-yl)methyl)piperazine-1-carbonyl)-2-(2,6-dioxopiperidin-3-yl)isoindoline-1,3-dione], for which the pIC50 is 5.84.

`CC1(C)CCC(CN2CC3CCC2CN3c2ccc3c(c2)C(=O)N(C2CCC(=O)NC2=O)C3=O)=C(c2ccc(F)cc2)C1` (stereo not shown) [GT-05388, 2-(2,6-dioxopiperidin-3-yl)-5-(5-((4′-fluoro-5,5-dimethyl-3,4,5,6-tetrahydro-[1,1′-biphenyl]-2-yl)methyl)-2,5-diazabicyclo[2.2.2]octan-2-yl)isoindoline-1,3-dione] had a pIC50 of 6.39. For `O=C1CCC(N2Cc3cc(C(O)C4(O)CN(C(=O)c5ccccc5-c5ccc(Cl)cc5)C4)ccc3C2=O)C(=O)N1` (stereo not shown) [GT-05484, 3-(5-((1-(4′-chloro-[1,1′-biphenyl]-2-carbonyl)-3-hydroxyazetidin-3-yl)(hydroxy)methyl)-1-oxoisoindolin-2-yl)piperidine-2,6-dione], the pIC50 was 6.44.
